The values that follow come from ChEMBL document CHEMBL3832034.

Common to all, as to format: ADME, organism-based
One data set concerns Homo sapiens. The data set is described as follows: (§1) Pharmacokinetic parameters for Lidocaine, and Prilocaine after topical administration of EMLA cream intact skin on the lateral thighs, vaginal fornices and penile skin of subjects. Set-up: dose 1.5 g, route topical. To be noted: in vivo, topical_or_ocular; for C / Tmax: route topical.
Data set [1] can be described thus: as §1. Details: dose 1.5 g, route topical. To be noted: human, in vivo, topical or ocular, 1.5 g; dosed compound id 50, dosed compound name PRILOCAINE, regimen Single dose, study dosing duration 3 hours, tissue Plasma.
Data set [2] is described as follows: Evaluation of pharmacokinetic parameters for Lidocaine, and Prilocaine following intravenous (IV) administration of Lidocaine or application of a cream. Particulars: human, dosed compound id 50, dosed compound name PRILOCAINE, tissue Plasma.
[3] abbreviates: dose 0.5 to 3.3 g, dosed compound id 50, dosed compound name PRILOCAINE, gender female, regimen Single dose, study dosing duration 10 to 60 minutes, tissue Plasma.

Where “and” joins values, the source holds several entries; their conditions need not be identical. Equal entries are not always repeated.

Regarding `CCN(CC)CC(=O)Nc1c(C)cccc1C` [LIDOCAINE], the Cmax (as a rule, the peak of the concentration-time curve) in the data set on Homo sapiens is 120 ng/mL and 280 ng/mL.
In the case of `CCCNC(C)C(=O)Nc1ccccc1C` (configuration not stated) [PRILOCAINE], the Cmax in data set [1] was 70 ng/mL; with Homo sapiens (dosed compound id 50, dosed compound name PRILOCAINE, regimen Single dose, study dosing duration 24 hours, tissue Plasma), 140 ng/mL. Moreover, the C with Homo sapiens (setting [3]) fell in the range of 40 to 346 ng/mL; in the data set on Homo sapiens (dose 0.5 to 3.3 g, dosed compound id 50, dosed compound name PRILOCAINE, gender male, regimen Single dose, study dosing duration 15 minutes, tissue Plasma) it was 2.5 to 7 ng/mL. Further, the Tmax (usually the time from dosing to the highest level) in the data set on Homo sapiens (setting [3]) was 0.35 to 1.58 h; in the data set with Homo sapiens (dose 1.5 g, dosed compound id 50, dosed compound name PRILOCAINE, regimen Single dose, study dosing duration 3 hours, tissue Plasma), 4 h; in the data set with Homo sapiens (dose 1.5 g, dosed compound id 50, dosed compound name PRILOCAINE, regimen Single dose, study dosing duration 24 hours, tissue Plasma) it was 10 h. Besides, the clearance – broadly, a measure of how efficiently the substance is removed, as volume per time – in data set [2] (in vivo, route iv) was 38 mL/min/kg. For the same molecule, the half-life (usually the time in which the quantity being followed falls by half) in data set [2] (in vivo, route iv) was 1.17 h. The Vd in data set [2] (in vivo, route iv, read-out: Vss) worked out at 2.6 L/kg. For the same molecule, in data set [2] (topical or ocular, route topical, read-out: Protein binding (converted)), the fraction unbound was 0.45.
